The subject of one experiment is MOLM-13. In words: Antiproliferative activity against human MOLM-13 assessed as reduction in cell viability incubated for 72 hrs by Cell titer-Glo assay. Format: functional, cell-based. The settings on record: MOLM-13, 72 h. (In ATP-based viability assays light output follows the ATP content of the culture.)
Experiment [1] concerns the target Dihydroorotate dehydrogenase (quinone), mitochondrial (Homo sapiens, UniProt Q02127). In words: Inhibition of human DHODH using dihydroorotate as substrate and CoQ6 as co-substrate by DCIP dye based spectrophotometry analysis.

Dihydroorotate dehydrogenase (quinone), mitochondrial, sequence (Q02127 whole entry): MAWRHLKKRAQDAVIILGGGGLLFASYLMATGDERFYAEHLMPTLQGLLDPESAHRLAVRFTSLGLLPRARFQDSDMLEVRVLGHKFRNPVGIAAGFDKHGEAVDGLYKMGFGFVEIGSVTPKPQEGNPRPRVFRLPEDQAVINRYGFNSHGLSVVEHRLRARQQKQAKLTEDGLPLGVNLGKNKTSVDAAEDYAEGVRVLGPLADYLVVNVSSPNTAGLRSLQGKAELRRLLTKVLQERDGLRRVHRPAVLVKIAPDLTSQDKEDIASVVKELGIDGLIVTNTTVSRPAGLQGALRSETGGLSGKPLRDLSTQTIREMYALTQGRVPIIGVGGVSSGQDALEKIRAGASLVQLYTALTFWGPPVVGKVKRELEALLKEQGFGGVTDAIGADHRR

Turning to `CCn1c(CO)nn(-c2cc(O[C@@H](C)C(F)(F)F)c3c(Oc4c(F)ccc(OCCOC)c4Cl)nccc3c2)c1=O`, the IC50 (in general, the concentration at which inhibition is half-maximal) with MOLM-13 turned out to be 0.3 nM; in experiment [1], 0.41 nM.
In the case of `CCn1c(CO)nn(-c2nc(O[C@@H](C)C(F)(F)F)c3c(Oc4c(F)cccc4Cl)nncc3c2F)c1=O`, the IC50 (in the experiment with MOLM-13; in experiment [1]) was 0.2 nM throughout.
Consider `CCn1c(CO)nn(-c2cc(O[C@@H](C)C(F)(F)F)c3c(Oc4c(F)ccc(OC)c4Cl)nccc3c2)c1=O`, for which the concentration for half-maximal inhibition (IC50) (in the experiment on MOLM-13; in experiment [1]) was 0.3 nM each time.
Take `CCn1c(CO)nn(-c2nc(OC(C)C(F)(F)F)c3c(Oc4c(F)cccc4Cl)nccc3c2F)c1=O` (configuration not stated): the figures for the half-inhibitory concentration (IC50) (in the experiment with MOLM-13; in experiment [1]) were 0.4 nM and 0.59 nM, respectively.
Taken in the same sequence, the figures for `CCn1c(CO)nn(-c2nc(O[C@@H](C)C(F)(F)F)c3c(Nc4c(F)cccc4Cl)nncc3c2F)c1=O` were 0.46 nM and 0.38 nM.
The like results for `CCn1c(CO)nn(-c2cc(O[C@@H](C)C(F)(F)F)c3c(Oc4c(F)ccc(N(C)C)c4Cl)nccc3c2)c1=O` were, in that order, 0.3 nM and 0.4 nM.
